Data on nine molecules can be found in PubChem BioAssay (NCI).

Molecules are shown by their SMILES.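 All cell lines were grown in 96-well plates and treated with compound for 48 hours. GI50 is the concentration that inhibits growth by half. At the TGI there is no net growth.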 A value given as a limit tells only on which side of the number the result lay.

Some test systems named below: HS 578T breast; KM12 colon; M14 melanoma; MDA-MB-231 breast; MDA-MB-435; NCI/ADR-RES ovarian; OVCAR-4 ovarian; SNB-19 CNS; DMS 273 small cell lung; M19-MEL melanoma.
Assay in all cases: inhibition of tumour cell growth, NCI panel, 48 h

For `COc1ccc(Oc2nc3cc(N)cc(N)c3nc2-c2ccccc2)cc1`, the GI50 is 24.3 µM in the assay on HS 578T breast; 37.4 µM in the assay with KM12 colon; > 100 µM with M14 melanoma; 20.4 µM with MDA-MB-231 breast; 40.6 µM in the assay with MDA-MB-435; 59900 nM with NCI/ADR-RES ovarian. Besides, the GI50 with OVCAR-4 ovarian was 3.75 µM; with SNB-19 CNS, 65 µM. Also, the TGI with HS 578T breast is > 100 µM; in the assay on KM12 colon, > 100 µM; in the assay with M14 melanoma, > 100 µM; in the assay on MDA-MB-231 breast, 64.5 µM; with MDA-MB-435, > 100 µM; with NCI/ADR-RES ovarian, > 100 µM. Further, the figures for the TGI in the assay with OVCAR-4 ovarian and in the assay with SNB-19 CNS were 24.6 µM and > 100 µM, respectively.
For `Cn1c(CCCC(=O)O)nc2cc(N(CCCl)CCCl)ccc21`, the GI50 with HS 578T breast is > 83.3 µM; in the assay on KM12 colon it was > 100 µM; in the assay with M14 melanoma, > 65.5 µM; with MDA-MB-231 breast, > 69.6 µM; with MDA-MB-435, > 75.5 µM; with NCI/ADR-RES ovarian, 98200 nM. In addition, the GI50 in the assay with OVCAR-4 ovarian was > 100 µM; in the assay on SNB-19 CNS it was 97.9 µM. The TGI in the assay on HS 578T breast, in the assay on KM12 colon, with M14 melanoma, with MDA-MB-231 breast, with MDA-MB-435 and with NCI/ADR-RES ovarian was > 100 µM in each case. Moreover, the TGI in the assay with OVCAR-4 ovarian and with SNB-19 CNS was > 100 µM each time.
`Cc1ccc(S(=O)(=O)OCOS(=O)(=O)c2ccc(C)cc2)cc1`: the TGI in the assay on DMS 273 small cell lung, in the assay with KM12 colon, in the assay on M14 melanoma, in the assay on M19-MEL melanoma and in the assay on SNB-19 CNS was > 100 µM throughout.
For `CCOc1cc(-c2nncn2C)ccc1Nc1ncc2cc(C)nc(NCC(C)(C)C)c2n1`, the TGI in the assay on HS 578T breast, in the assay with KM12 colon, in the assay with M14 melanoma, with MDA-MB-231 breast, in the assay on MDA-MB-435 and with NCI/ADR-RES ovarian was > 100 µM in each case. Moreover, the TGI in the assay on OVCAR-4 ovarian and with SNB-19 CNS was > 100 µM throughout. Also, the GI50 with KM12 colon is > 100 µM; with M14 melanoma, > 100 µM; in the assay with MDA-MB-435, > 100 µM; in the assay on NCI/ADR-RES ovarian it was 1060 nM; in the assay with OVCAR-4 ovarian it was > 29.3 µM; in the assay with SNB-19 CNS it was > 100 µM.
In the case of `COc1cc(C(=O)/C=C/c2cc(-c3ccc4c(c3)OCO4)n[nH]2)cc(OC)c1OC`, the GI50 in the assay with HS 578T breast was 3.14 µM; with KM12 colon, 1.86 µM; in the assay on M14 melanoma it was 2.91 µM; with MDA-MB-231 breast, 2.08 µM; in the assay on MDA-MB-435 it was 2.28 µM; with NCI/ADR-RES ovarian it was 2990 nM. Further, the GI50 with OVCAR-4 ovarian was 0.885 µM; with SNB-19 CNS, 2.34 µM. For the same molecule, the TGI was 20.5 µM with HS 578T breast; 3.85 µM in the assay on KM12 colon; 9.2 µM in the assay with M14 melanoma; 6.23 µM with MDA-MB-231 breast; 5.8 µM with MDA-MB-435; 12.3 µM in the assay with NCI/ADR-RES ovarian. The results for the TGI in the assay with OVCAR-4 ovarian and with SNB-19 CNS were 4.24 µM and 11.7 µM, respectively.
Regarding `CC[C@@H](C)/C=C(C)/C=C/C(=O)c1c(O)c(-c2ccc(OC(=O)[C@@]34CC[C@@](C)(C(=O)O3)C4(C)C)cc2)cn(O)c1=O`, the GI50 with HS 578T breast is 3.33 µM; in the assay on KM12 colon it was 3.85 µM; in the assay on M14 melanoma it was 1.06 µM; in the assay on MDA-MB-231 breast, 1.83 µM; in the assay with MDA-MB-435, 2.46 µM; with NCI/ADR-RES ovarian, 1460 nM. The GI50 in the assay on OVCAR-4 ovarian was 1.23 µM; in the assay on SNB-19 CNS, 2.66 µM. Further, the TGI is > 50 µM with HS 578T breast; > 50 µM in the assay on KM12 colon; 2.49 µM in the assay on M14 melanoma; > 50 µM with MDA-MB-231 breast; > 50 µM in the assay with MDA-MB-435; 10 µM with NCI/ADR-RES ovarian. In addition, the TGI in the assay on OVCAR-4 ovarian and with SNB-19 CNS was > 50 µM in each case.
In the case of `CN(C)c1ccc(/C=C(\C#N)c2cc3ccccc3[nH]2)cc1`, the GI50 in the assay with HS 578T breast is 1.63 µM; in the assay on KM12 colon it was 0.495 µM; in the assay on M14 melanoma, 0.551 µM; in the assay with MDA-MB-231 breast it was 1.63 µM; in the assay with MDA-MB-435 it was 0.228 µM; in the assay on NCI/ADR-RES ovarian it was 490 nM. Moreover, the GI50 was 3.75 µM with OVCAR-4 ovarian and 2.23 µM in the assay on SNB-19 CNS. The TGI with HS 578T breast is 9.49 µM; in the assay on KM12 colon, > 100 µM; with M14 melanoma it was > 100 µM; in the assay on MDA-MB-231 breast it was > 100 µM; in the assay on MDA-MB-435, 0.641 µM; in the assay with NCI/ADR-RES ovarian, > 100 µM. The TGI with OVCAR-4 ovarian and in the assay on SNB-19 CNS was > 100 µM in each case.
`O=C1C=C(NCCO)c2nccc3c2c1nc1ccccc13`: the GI50 in the assay with HS 578T breast was 25.5 µM; in the assay on KM12 colon it was 21 µM; in the assay with M14 melanoma it was 17.3 µM; in the assay on MDA-MB-231 breast, 24.5 µM; in the assay on MDA-MB-435 it was 29.3 µM; with NCI/ADR-RES ovarian it was 32000 nM. Besides, the GI50 in the assay on OVCAR-4 ovarian was 41.3 µM; with SNB-19 CNS, 34 µM. Also, the TGI is > 100 µM in the assay with HS 578T breast; > 100 µM in the assay on KM12 colon; 58.7 µM in the assay with M14 melanoma; > 100 µM in the assay with MDA-MB-231 breast; > 100 µM with MDA-MB-435; > 100 µM with NCI/ADR-RES ovarian. For the same molecule, the TGI in the assay with OVCAR-4 ovarian and in the assay on SNB-19 CNS was > 100 µM in each case.
On to `C[C@@H](Nc1cc(F)cc(F)c1)c1cc(C(=O)N(C)C)cc2c(=O)cc(N3CCOCC3)oc12`, for which the GI50 in the assay with HS 578T breast was 0.693 µM; in the assay on KM12 colon, > 46.1 µM; with M14 melanoma it was 24.3 µM; in the assay on MDA-MB-231 breast it was 24.7 µM; in the assay on MDA-MB-435, 8.17 µM; with NCI/ADR-RES ovarian, > 83900 nM. The figures for the GI50 in the assay on OVCAR-4 ovarian and with SNB-19 CNS were 26.1 µM and 10.7 µM, respectively. In addition, the TGI was 23.6 µM in the assay with HS 578T breast; > 100 µM in the assay with KM12 colon; > 100 µM in the assay with M14 melanoma; > 100 µM in the assay on MDA-MB-231 breast; > 100 µM in the assay on MDA-MB-435; > 100 µM in the assay with NCI/ADR-RES ovarian. Besides, the TGI in the assay with OVCAR-4 ovarian and with SNB-19 CNS was > 100 µM each time.
